{"source": "patent US20170305943A1", "about": "“COMPOUNDS FOR THE TREATMENT OF BACTERIAL INFECTIONS” (priority 2014, published 2017)", "data": [{"test_system": "Clostridium difficile (Isolate ID ATCC 9689)", "assay": "Bacterial Assay: Determination of Antibacterial Activity (MIC, broth microdilution or agar dilution)", "format": "cell-based", "settings": "Clostridioides difficile, ATCC9689, 48 h, read-out: C. difficile MIC Activity Range", "procedure": "Bacterial Assay: Determination of Antibacterial Activity Compounds of the invention were tested for antimicrobial activity by susceptibility testing in liquid or on solid media. Minimum inhibitory concentrations (MICs) for compounds against each strain were determined by the broth microdilution or agar dilution method according to the guidelines of the Clinical Laboratories and Standards Institute, formerly the National Committee for Clinical Laboratory Standards (Clinical Laboratories and Standards Institute. Methods for Dilution Antimicrobial Susceptibility Tests for Bacteria That Grow Anaerobically; Approved Standard-Seventh Edition. Document M11-A7, CLSI, Wayne, Pa., 2007, Clinical Laboratories and Standards Institute). Briefly MICs were determined by visible inspection after 48 hours of growth in the presence of compounds, cultures were grown at 37° C. in anaerobic gas packs using reinforced clostridial medium supplemented with 0.1% defribrinated horse blood. The bacterial strains tested include C. difficile (Clostridium difficile (Isolate ID ATCC 9689)) (Table 2) and two drug resistant clinical isolates (Clostridium difficile (Isolate ID BI-9) and Clostridium difficile (Isolate ID 027-01) (Table 3).\nMICs were determined to be within the activity ranges “A” activity≦1.01 μg/mL; “B” activity>1.0 μg/mL-4.0 μg/mL; “C” activity>4.0 μg/mL-16 μg/mL", "units": {"MIC": "µg/mL"}, "values": [{"smiles": "NC(=O)c1c(F)ccc(OCCCCOc2ccc(Cl)c(Cl)c2)c1F", "note": "[Compound 171, 3-[4-(3,4-dichlorophenoxy)butoxy]-2,6-difluorobenzamide]", "MIC": "< 1.01"}, {"smiles": "CCOC(=O)COCC(Oc1ccc(F)c(C(N)=O)c1F)c1nc(-c2ccc(C(F)(F)F)cc2)c(Br)o1", "note": "(stereo not shown) [Compound 44, ethyl [2-{5-bromo-4-[4-(trifluoromethyl)phenyl]-1,3-oxazol-2-yl}-2-(3-carbamoyl-2,4-difluorophenoxy)ethoxy]acetate]", "MIC": "4 to 16"}, {"smiles": "NC(=O)c1c(F)ccc(OCc2nc(-c3ccc(S(F)(F)(F)(F)F)cc3)co2)c1F", "note": "[Compound 121, 2,6-difluoro-3-({4-[4-(pentafluoro-lambda~6~- sulfanyl)phenyl]-1,3-oxazol-2-yl}methoxy)benzamide]", "MIC": "1 to 4"}, {"smiles": "NC(=O)c1c(F)ccc(OC(CO)c2nc(-c3ccc(Cl)s3)c(Br)o2)c1F", "note": "(racemic) [Compound 101, 3-{1-[5-bromo-4-(5-chlorothiophen-2-yl)-1,3-oxazol-2-yl]-2-hydroxyethoxy}-2,6-difluorobenzamide]", "MIC": "1 to 4"}, {"smiles": "CCOC(=O)c1cc(Cl)ccc1-c1csc(COc2ccc(F)c(C(N)=O)c2F)n1", "note": "[Compound 190, ethyl 2-{2-[(3-carbamoyl-2,4-difluorophenoxy)methyl]-1,3-thiazol-4-yl}-5-chlorobenzoate]", "MIC": "4 to 16"}, {"smiles": "NC(=O)c1c(F)ccc(OCCCCOc2ccc(OC(F)(F)F)c(Cl)c2)c1F", "note": "[Compound 164, 3-{4-[3-chloro-4-(trifluoromethoxy)phenoxy]butoxy}-2,6-difluorobenzamide]", "MIC": "< 1.01"}, {"smiles": "NC(=O)c1c(F)ccc(OC(COP(=O)(O)O)c2nc(-c3ccc(C(F)(F)F)cc3)c(Br)o2)c1F", "note": "(stereo not shown) [Compound 43, 2-{5-bromo-4-[4-(trifluoromethyl)phenyl]-1,3-oxazol-2-yl}-2-(3-carbamoyl-2,4-difluorophenoxy)ethyl dihydrogen phosphate]", "MIC": "1 to 4"}, {"smiles": "Cc1ncccc1CNC(=O)OCC(Oc1ccc(F)c(C(N)=O)c1F)c1nc(-c2ccc(C(F)(F)F)cc2)c(Br)o1", "note": "(stereo not shown) [Compound 90, 2-{5-bromo-4-[4-(trifluoromethyl)phenyl]-1,3-oxazol-2-yl}-2-(3-carbamoyl-2,4-difluorophenoxy)ethyl [(2-methylpyridin-3-yl)methyl]carbamate]", "MIC": "< 1.01"}, {"smiles": "N#Cc1cc(Cl)ccc1-c1csc(COc2ccc(F)c(C(N)=O)c2F)n1", "note": "[Compound 206, 3-{[4-(4-chloro-2-cyanophenyl)-1,3-thiazol-2-yl]methoxy}-2,6-difluorobenzamide]", "MIC": "< 1.01"}, {"smiles": "NC(=O)c1c(F)ccc(OC(CO)c2nc(-c3ccc(OC(F)(F)F)cc3)c(Br)o2)c1F", "note": "(stereo not shown) [Compound 52, 3-(1-{5-bromo-4-[4-(trifluoromethoxy)phenyl]-1,3-oxazol-2-yl}-2-hydroxyethoxy)-2,6-difluorobenzamide]", "MIC": "< 1.01"}, {"smiles": "NC(=O)c1c(F)ccc(OCCCCOc2cccc(OC(F)(F)F)c2)c1F", "note": "[Compound 166, 2,6-difluoro-3-{4-[3-(trifluoromethoxy)phenoxy]butoxy} benzamide]", "MIC": "< 1.01"}, {"smiles": "NC(=O)c1c(F)ccc(OCCCCOc2ccc(Cl)c(C(F)(F)F)c2)c1F", "note": "[Compound 169, 3-{4-[4-chloro-3-(trifluoromethyl)phenoxy]butoxy}-2,6-difluorobenzamide]", "MIC": "< 1.01"}, {"smiles": "Cc1cccc(CNC(=O)OCC(Oc2ccc(F)c(C(N)=O)c2F)c2nc(-c3ccc(C(F)(F)F)cc3)c(Br)o2)n1", "note": "(stereo not shown) [Compound 77, 2-{5-bromo-4-[4-(trifluoromethyl)phenyl]-1,3-oxazol-2-yl}-2-(3-carbamoyl-2,4-difluorophenoxy)ethyl [(6-methylpyridin-2-yl)methyl]carbamate]", "MIC": "1 to 4"}, {"smiles": "CC(=O)OCC(Oc1ccc(F)c(C(N)=O)c1F)c1nc(-c2ccc(C(F)(F)F)cc2)c(Cl)o1", "note": "(stereo not shown) [Compound 34, 2-(3-carbamoyl-2,4-difluorophenoxy)-2-{5-chloro-4-[4-(trifluoromethyl)phenyl]-1,3-oxazol-2-yl}ethyl acetate]", "MIC": "< 1.01"}, {"smiles": "COC(=O)NCC(Oc1ccc(F)c(C(N)=O)c1F)c1nc(-c2ccc(C(F)(F)F)cc2)c(Br)o1", "note": "(racemic) [Compound 94, methyl [2-{5-bromo-4-[4-(trifluoromethyl)phenyl]-1,3-oxazol-2-yl}-2-(3-carbamoyl-2,4-difluorophenoxy)ethyl]carbamate]", "MIC": "1 to 4"}, {"smiles": "COc1cc(CNC(=O)OCC(Oc2ccc(F)c(C(N)=O)c2F)c2nc(-c3ccc(C(F)(F)F)cc3)c(Br)o2)ccn1", "note": "(stereo not shown) [Compound 84, 2-{5-bromo-4-[4-(trifluoromethyl)phenyl]-1,3-oxazol-2-yl}-2-(3-carbamoyl-2,4-difluorophenoxy)ethyl [(2-methoxypyridin-4-yl)methyl]carbamate]", "MIC": "< 1.01"}, {"smiles": "NC(=O)c1c(F)ccc(OCCCOc2ccc(C(F)(F)F)cc2)c1F", "note": "[Compound 125, 2,6-difluoro-3-{3-[4-(trifluoromethyl)phenoxy]propoxy}benzamide]", "MIC": "1 to 4"}, {"smiles": "Cn1c(CNC(=O)OCC(Oc2ccc(F)c(C(N)=O)c2F)c2nc(-c3ccc(C(F)(F)F)cc3)c(Br)o2)nc2ccccc21", "note": "(stereo not shown) [Compound 85, 2-{5-bromo-4-[4-(trifluoromethyl)phenyl]-1,3-oxazol-2-yl}-2-(3-carbamoyl-2,4-difluorophenoxy)ethyl [(1-methyl-1H-benzimidazol-2-yl)methyl]carbamate]", "MIC": "1 to 4"}, {"smiles": "CC(Oc1ccc(F)c(C(N)=O)c1F)c1nc(-c2ccc(Cl)cc2)ns1", "note": "(stereo not shown) [Compound 30, 3-{1-[3-(4-chlorophenyl)-1,2,4-thiadiazol-5-yl]ethoxy}-2,6-difluorobenzamide]", "MIC": "< 1.01"}, {"smiles": "CNCNC(=O)c1c(F)ccc(OCc2nc3cc(Cl)cnc3s2)c1F", "note": "[Compound 103]", "MIC": "4 to 16"}, {"smiles": "Cc1nn(-c2ccc(Cl)cc2)nc1COc1ccc(F)c(C(N)=O)c1F", "note": "[Compound 200, 3-{[2-(4-chlorophenyl)-5-methyl-2H-1,2,3-triazol-4-yl]methoxy}-2,6-difluorobenzamide]", "MIC": "1 to 4"}, {"smiles": "N#CCCCN(CCCCOc1ccc(OC(F)(F)F)cc1)c1ccc(F)c(C(N)=O)c1F", "note": "[Compound 182, 3-[(3-cyanopropyl){4-[4-(trifluoromethoxy)phenoxy]butyl)amino]-2,6-difluorobenzamide]", "MIC": "4 to 16"}, {"smiles": "CCCCCCOCCOc1ccc(F)c(C(N)=O)c1F", "note": "[Compound 4, 2,6-difluoro-3[2-(hexyloxy)ethoxy]benzamide]", "MIC": "1 to 4"}, {"smiles": "NC(=O)c1c(F)ccc(OCCCCOc2ccc(C(F)(F)F)cn2)c1F", "note": "[Compound 141, 2,6-difluoro-3-(4-{[5-(trifluoromethyl)pyridin-2-yl]oxy}butoxy)benzamide]", "MIC": "< 1.01"}, {"smiles": "CCCCCCCCCOc1ccc(F)c(C(N)=O)c1Cl", "note": "[Compound 5, 2-chloro-6-fluoro-3-(nonyloxy)benzamide]", "MIC": "< 1.01"}, {"smiles": "CNCC(=O)OCC(Oc1ccc(F)c(C(N)=O)c1F)c1nc(-c2ccc(Cl)cc2)c(Cl)o1", "note": "(stereo not shown) [Compound 37, 2-(3-carbamoyl-2,4-difluorophenoxy)-2-[5-chloro-4-(4-chlorophenyl)-1,3-oxazol-2-yl]ethyl N-methylglycinate]", "MIC": "4 to 16"}, {"smiles": "NC(=O)c1c(F)ccc(OCCCc2nc(-c3ccc(OC(F)(F)F)cc3)cs2)c1F", "note": "[Compound 115, 2,6-difluoro-3-(3-{4-[4-(trifluoromethoxy)phenyl]-1,3-thiazol-2-yl}propoxy)benzamide]", "MIC": "1 to 4"}, {"smiles": "NC(=O)c1c(F)ccc(OC(CCC(O)CO)c2nc(-c3ccc(C(F)(F)F)cc3)c(Br)o2)c1F", "note": "(stereo not shown) [Compound 53, 3-[(1-{5-bromo-4-[4-(trifluoromethyl)phenyl]-1,3-oxazol-2-yl}-4,5-dihydroxypentyl)oxy]-2,6-difluorobenzamide]", "MIC": "1 to 4"}, {"smiles": "NC(=O)c1c(F)ccc(OC(CCCO)c2nc(-c3ccc(C(F)(F)F)cc3)c(Br)o2)c1F", "note": "(stereo not shown) [Compound 46, 3-(1-{5-bromo-4-[4-(trifluoromethyl)phenyl]-1,3-oxazol-2-yl}-4-hydroxybutoxy)-2,6-difluorobenzamide]", "MIC": "1 to 4"}, {"smiles": "NC(=O)c1c(F)ccc(O[C@H](COC(=O)CCC(=O)O)c2nc(-c3ccc(C(F)(F)F)cc3)c(Br)o2)c1F", "note": "[Compound 70, 4-[(2R)-2-{5-bromo-4-[4-(trifluoromethyl)phenyl]-1,3-oxazol-2-yl}-2-(3-carbamoyl-2,4-difluorophenoxy)ethoxy]-4-oxobutanoic acid]", "MIC": "< 1.01"}, {"smiles": "CC(=O)OCC(Oc1ccc(F)c(C(N)=O)c1F)c1nc(-c2ccc(OC(F)(F)F)cc2)c(Br)o1", "note": "(stereo not shown) [Compound 51, 2-{5-bromo-4-[4-(trifluoromethoxy)phenyl]-1,3-oxazol-2-yl}-2-(3-carbamoyl-2,4-difluorophenoxy)ethyl acetate]", "MIC": "< 1.01"}, {"smiles": "NC(=O)c1c(F)ccc(OC(COC(=O)NCc2ccccn2)c2nc(-c3ccc(C(F)(F)F)cc3)c(Br)o2)c1F", "note": "(stereo not shown) [Compound 61, 2-{5-bromo-4-[4-(trifluoromethyl)phenyl]-1,3-oxazol-2-yl}-2-(3-carbamoyl-2,4-difluorophenoxy)ethyl (pyridin-2-ylmethyl)carbamate]", "MIC": "1 to 4"}, {"smiles": "NC(=O)c1c(F)ccc(OCCCCOc2cccc(S(F)(F)(F)(F)F)c2)c1F", "note": "[Compound 174, 2,6-difluoro-3-{4-[3-(pentafluoro-lambda~6~- sulfanyl)phenoxy]butoxy}benzamide]", "MIC": "< 1.01"}, {"smiles": "CN(Cc1ccncc1)C(=O)OCC(Oc1ccc(F)c(C(N)=O)c1F)c1nc(-c2ccc(C(F)(F)F)cc2)c(Br)o1", "note": "(stereo not shown) [Compound 71, 2-{5-bromo-4-[4-(trifluoromethyl)phenyl]-1,3-oxazol-2-yl}-2-(3-carbamoyl-2,4-difluorophenoxy)ethyl methyl(pyridin-4-ylmethyl)carbamate]", "MIC": "4 to 16"}]}]}
